Results: patent US20070269832A1, “Novel affinity labels” (priority 2001, published 2007)
Peptide text beside a SMILES is read from it. * marks the point of attachment. Cbz = O=C(OCc1ccccc1)*; CH2F = FC*

Legend:
Format in all cases: cell-based, Human
HL-60 cells [1] = test: Labeling of untreated and CPT-treated HL-60 cells with FLISP (FFCK, FLCK) or FLICA reagents, fluorescence measured by LSC; settings: for binding of the ligand by cells treated with CPT vs untreated cells (in words): HL-60, 3 h CPT, combined with PI
Protocol: Preparation of Reagents: Fluorescent Inhibitors of Serine Proteases (FLISP) reagents, 5(6)-Carboxyfluoresceinyl-L-phenylalanylchloromethyl ketone (FFCK) and 5(6)-carboxyfluoresceinyl-L-leucylchloromethyl ketone (FLCK) were dissolved initially in dimethyl sulfoxide (DMSO; Sigma) to yield a 10 mM concentration. Aliquots were made from this stock solution and stored frozen at −20° C. protected from light. This reagent stock was then diluted directly into the cell culture media to give a 1× working reagent concentration of 10 μM. Dilution of the reagent into aqueous (cell culture) media is done just prior to cell exposure to preserve the labile chloromethyl ketone reactivity of FLISP reagent.
Fluorescent inhibitors of caspases (FLICA) reagents, namely the fluorescein labeled VAD-FMK (FAM-VAD-FMK) and sulforhodamine labeled VAD-FMK (SR-VAD-FMK) (Immunochemistry Technologies; Bloomington, Minn.) were both designed to detect the presence of active caspases within apoptotic cells. These inhibitors were dissolved in DMSO to obtain a 150× concentrated stock solution. Aliquots of these solutions were stored at −20 °C in the dark. Prior to use, a 30× working solution of either FAM-VAD-FMK or SR-VAD-FMK was prepared by diluting the stock solution 1:5 in phosphate buffered saline (PBS) and mixing until the solution become clear. The 30× working solution was diluted 1:30 cell culture media to give a final 1× working reagent concentration of 10 μM.
(§1) Cells: Human promyelocytic leukemic HL-60 cells were obtained from American Type Culture Collection (ATCC; Rockville, Md.). […]
Cell staining and fluorescence measurement by LSC: The HL-60 cells from the untreated or CPT treated cultures were centrifuged (200 g, 5 min) and resuspended in PBS at approximately 10^4 cells per 5 ml volume. […]

HL-60 cells [2] = test: Dual labeling of CPT-treated HL-60 cells with SR-VAD-FMK and FFCK or FLCK (fluorescence microscopy / LSC); settings: CPT-treated HL-60, dual labeling
Protocol: Cell staining and fluorescence measurement by LSC: The HL-60 cells from the untreated or CPT treated cultures were centrifuged (200 g, 5 min) and resuspended in PBS at approximately 10^4 cells per 5 ml volume. Cells were then attached electrostatically to microscope slides as described before (Bedner et al., Exp Cell Res., 2000, 259:308-313; Smolewski et al., Cytometry, 2001, 44:73-82). Briefly, the attachment was achieved by the incubation (15 min) of cells suspended in serum-free PBS in shallow (<1 mm depth; 1.5×1.5 cm) wells on horizontally placed microscope slides that were rinsed in 100% ethanol and air dried prior to use, at 100% humidity. The electrostatically attached cells remain viable, exclude such dyes as trypan blue and propidium iodide (PI), and have unchanged morphology for several hours (Bedner et al., Exp Cell Res., 2000, 259:308-313). After the cells became attached, PBS was removed from the wells and was replaced by 150 μL of the culture medium containing 10% FCS. FLISP staining solutions were prepared by diluting 5 μL of the 10 mM FFCK or FLCK stock solution into 5 mL of culture medium yielding a final FLISP concentration 10 μM. The medium from above the cells on the slide was then replaced with 150 μL of this staining solution. A polyethylene foil (2.5×2.5 cm) was positioned over the staining solution to prevent drying. The slides were subsequently incubated for 1 h at 37° C. in a closed box with wet tissue to additionally prevent drying. […] The slides were placed on the motorized stage of a laser scanning microscope (LSC; Kamentsky, L. A., Methods Cell Biol, 2001, 63:51-87; Darzynkiewicz et al., Exp Cell Res, 1999, 249:1-12) for fluorescence measurement. Cell fluorescence was then measured using a 488 nm excitation laser line and recording integral and maximal pixel intensities of green FFCK or FLCK. FLICA staining was measured under the same conditions as FLISP staining. Fluorescence can also be measured by flow cytometer and fluorescence microscopy. […]

HL-60 cells [3] = test: Pretreatment of HL-60 cells with unlabeled protease inhibitors during CPT induction of apoptosis, then binding of FAM-VAD-FMK, FFCK or FLCK measured by LSC; settings: HL-60, CPT 3 h in presence of the unlabeled inhibitor; mean (SE) of three experiments
Protocol: Unlabeled (cold) N-tosyl-phenylalanylchloromethyl ketone (TPCK) and N-tosyl-lysylchloromethyl keytone (TLCK) were obtained from Sigma Chemical Co.; concentrated solutions at 10 mM were freshly prepared in DMSO. Further dilutions were made in tissue culture media.
The non-fluorescent poly-caspase inhibitor Z-VAD-FMK was obtained from Enzyme Systems Products. A 20 mM stock solution of Z-VAD-FMK was made in DMSO (Sigma) and the inhibitor was then diluted in culture media to obtain the final 50 μM concentration in the cultures.
as §1
Cell staining and fluorescence measurement by LSC: The HL-60 cells from the untreated or CPT treated cultures were centrifuged (200 g, 5 min) and resuspended in PBS at approximately 10^4 cells per 5 ml volume. […] The slides were placed on the motorized stage of a laser scanning microscope (LSC; Kamentsky, L. A., Methods Cell Biol, 2001, 63:51-87; Darzynkiewicz et al., Exp Cell Res, 1999, 249:1-12) for fluorescence measurement. Cell fluorescence was then measured using a 488 nm excitation laser line and recording integral and maximal pixel intensities of green FFCK or FLCK. FLICA staining was measured under the same conditions as FLISP staining. Fluorescence can also be measured by flow cytometer and fluorescence microscopy. […]

Compound | binding of the ligand by cells treated with CPT vs untreated cells (in words) (HL-60 cells [1]) | fluorescence of labeled cells (intensity and distribution, in words) (HL-60 cells [2]) | fluorescence intensity of FLCK labeled cells, greater compared to FFCK labeled cells (HL-60 cells [1]; identical settings of the photomultiplier sensitivity) | percent decrease in frequency of FAM-VAD-FMK labeled cells (caspase activation) vs CPT without unlabeled inhibitor (HL-60 cells [3]) [%]
5(6)-Carboxyfluoresceinyl-L-phenylalanylchloromethyl ketone [FFCK] | induced binding | strong | – | –
5(6)-carboxyfluoresceinyl-L-leucylchloromethyl ketone [FLCK] | induced binding | faint and more uniformly distributed | approximately 60% | –
COC(=O)C[C@H](NC(=O)[C@H](C)NC(=O)[C@@H](NC(=O)OCc1ccccc1)C(C)C)C(=O)CF [Z-VAD-FMK] (Cbz-Val-Ala-Asp(OMe)-CH2F) | – | – | – | 95.0
Sulforhodaminyl-L-valylalanylaspartylflyoromethyl ketone [SR-VAD-FMK, reference compound] | – | uniformly dispersed | – | –
